Source: patent US20090220528A1, “Stimulation of Toll-Like Receptors on T Cells” (THE TRUSTEES OF THE UNIVERISTY OF PENNSYLVANIA CNETER FOR …, priority 2005, published 2009)

Tests used:
[1] = tested on: MyD88-/- activated CD4+ T cells; experiment: TLR ligand-mediated survival of MyD88-/- activated CD4+ T cells; format: cell-based, mouse; conditions: FIG. 4B
Text: BALB/c mice were purchased from The Jackson Laboratory (Bar Harbor, Me.). DO11.10 mice on the BALB/c background have been described previously (Hsieh et al., 1992, Proc. Natl. Acad. Sci. USA 89:6065). MyD88^−/− mice have been described previously (Adachi et al., 1998, Immunity 9:143). For these experiments MyD88^+/− mice were backcrossed at least five times onto a C57BL/6 background and intercrossed to generate MyD88^−/− and MyD88^+/+ wild-type control littermates.
Following activation, purified CD4^+ T cells were washed twice in PBS and replated in culture medium at 10^6/ml. Cultures were left untreated or treated with either TLR ligands and/or inhibitors for indicated times and concentrations. Following incubation, CD4^+ T cells were washed twice in PBS/2% FBS and stained with CD4-allophycocyanin monoclonal antibody and 7-aminoactinomycin D (7-AAD; BD PharMingen) or annexin (BD PharMingen) and survival was assessed by exclusion of either of these two stains. […] Live CD4^+ T cell counts were calculated by taking the ratio of the number of CD4^+CD45.1^−7-ADD^− events collected to the number CD45.1^+ events collected and multiplying by 50,000. Proliferation was measured by CFSE dye dilution as previously described (Wells et al., 1997 J. Clin. Invest. 100:3173). […]

[2] = tested on: activated DO11.10 CD4+ T cells; experiment: Adoptive transfer and ex vivo proliferation analysis; format: in vivo, mouse
Experimental: Five million purified DO11.10 CD4^+ T cells were activated by pOVA-pulsed APCs (1 μg/ml), purified with magnetic beads, treated with poly(I:C) (90 μg/ml), CpG DNA (30 μM), LPS (100 ng/ml), or left untreated for 16 hours, washed in PBS twice, and then adoptively transferred into BALB/c hosts. At day 30, spleen and peripheral lymph nodes were harvested and stained with anti-CD4 monoclonal antibody and the DO11.10 clonotypic monoclonal antibody KJI-26. Survival of activated DO11.10 CD4^+ T cells in each host was determined by FACS analysis and is expressed as a percent with respect to the total number of CD4^+ T cells found in either the host spleen or lymph nodes along with a mean (thick line) for each treatment group. […] [^3H]Thymidine was added to cultures for an additional 8 hour and read on a beta scintillation counter and is expressed as a mean for each treatment group ±SEM.
To address this question, DO11.10 CD4^+ T cells were first activated with pOVA-pulsed APCs, purified by magnetic beads, treated with TLR ligands for 16 hours, washed, and then adoptively transferred into congenic BALB/c hosts. Survival and ex vivo proliferative responses were assessed 30 days later (FIGS. 5A and 5B). […]

poly(I:C)
enhanced survival response in MyD88-/- activated CD4+ T cells [1]: left intact
increase in percentage of recovered DO11.10 CD4+ T cells in host spleen ([2]; day 30 after adoptive transfer into BALB/c hosts, cells treated 16 hours before transfer, vs LPS-treated or untreated cells (FIG. 5A)): ~2 fold
increase in proliferative response to pOVA of splenic CD4+ T cells ([2]; ex vivo, day 30, vs hosts that received LPS-treated or untreated cells (FIG. 5B)): 2 fold
